# From ChEMBL document CHEMBL1201861, “Genomics of Drug Sensitity in Cancer screening data, Wellcome Trust Sanger Institute”
# Columns and labels:
# Assay in all cases: cells
# BV-173 = type: functional, cell-based; settings: Homo sapiens
# BB30-HNC = type: functional, cell-based, Homo sapiens; settings: Homo sapiens, BB30-HNC;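 further: growth inhibition of the cultured cell line, read out by a cell viability assay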
# RPMI-8866 = type: functional, cell-based; settings: Homo sapiens
# TK-10 = type: functional, cell-based, Homo sapiens; settings: Homo sapiens, TK-10;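 further: growth inhibition of TK-10 cells, read out in a cell viability assay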
# HT-29 = type: functional, cell-based, Homo sapiens; settings: Homo sapiens, HT-29;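 further: growth inhibition of human HT-29 cells, read out by a cell viability assay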
# SK-PN-DW = type: functional, cell-based; settings: Homo sapiens;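 further: growth inhibition measured with a viability assay on these cells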
# CP50-MEL-B = type: functional, cell-based, Homo sapiens; settings: Homo sapiens, CP50-MEL-B;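 further: growth inhibition of the human cell line, measured with a cell viability read-out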
# DJM-1 = type: functional, cell-based, Homo sapiens; settings: Homo sapiens, DJM-1;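 further: growth inhibition of human DJM-1 cells, read out by a cell viability assay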
# LXF-289 cell line = type: functional, cell-based, Homo sapiens; settings: Homo sapiens, LXF-289
# CAL-12T = type: functional, cell-based, Homo sapiens; settings: Homo sapiens, CAL-12T;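 further: growth inhibition of human CAL-12T cells, read out with a cell viability assay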
# A204 = type: functional, cell-based, Homo sapiens; settings: Homo sapiens, A204;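 further: growth inhibition of human A204 cells, read out with a cell viability assay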
# LU-99A = type: functional, cell-based, Homo sapiens; settings: Homo sapiens, LU-99A;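 further: growth inhibition of LU-99A cells, read out with a cell viability assay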
# MHH-ES-1 = type: functional, cell-based, Homo sapiens; settings: Homo sapiens, MHH-ES-1;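 further: cell growth inhibition measured by a cell viability assay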
# LN-405 = type: functional, cell-based, Homo sapiens; settings: Homo sapiens, LN-405
# KYSE-180 = type: functional, cell-based, Homo sapiens; settings: Homo sapiens, KYSE-180;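 further: growth inhibition of KYSE-180 cells, read out with a cell viability assay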
# CGTH-W-1 = type: functional, cell-based, Homo sapiens; settings: Homo sapiens, CGTH-W-1;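 further: growth inhibition of human CGTH-W-1 cells measured by cell viability assay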
# PANC-03-27 = type: functional, cell-based, Homo sapiens; settings: Homo sapiens, PANC-03-27
# NCI-H2170 = type: functional, cell-based, Homo sapiens; settings: Homo sapiens, NCI-H2170;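 further: cell viability assay measuring growth inhibition of human NCI-H2170 cancer cells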
# COR-L88 = type: functional, cell-based; settings: Homo sapiens;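 further: growth inhibition of COR-L88 cells, read out with a cell viability assay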
# NCI-H1623 = type: functional, cell-based, Homo sapiens; settings: Homo sapiens, NCI-H1623;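 further: cell viability assay used as the read-out for growth inhibition of NCI-H1623 cells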
# HSC-2 = type: functional, cell-based, Homo sapiens; settings: Homo sapiens, HSC-2;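 further: growth inhibition of human HSC-2 cells, read out by a cell viability assay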
# COLO-792 = type: functional, cell-based, Homo sapiens; settings: Homo sapiens, COLO-792
# BHT-101 = type: functional, cell-based, Homo sapiens; settings: Homo sapiens, BHT-101
# LAMA-84 = type: functional, cell-based; settings: Homo sapiens;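 further: growth inhibition of LAMA-84 cells, read out with a cell viability assay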
# SHP77 = type: functional, cell-based, Homo sapiens, SHP-77; settings: Homo sapiens, SHP77;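 further: growth inhibition of human SHP-77 cells measured by a cell viability assay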
# J82 = type: functional, cell-based; settings: Homo sapiens;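 further: growth inhibition of J82 cells, read out with a cell viability assay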
# COLO-678 = type: functional, cell-based, Homo sapiens; settings: Homo sapiens, COLO-678
# BPH-1 = type: functional, cell-based, Homo sapiens; settings: Homo sapiens, BPH-1;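 further: cell viability assay measuring growth inhibition of human BPH-1 cells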
# A-427 = type: functional, cell-based, Homo sapiens; settings: Homo sapiens, A-427;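 further: growth inhibition of human A-427 cells, read out by a cell viability assay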
# LAN-6 = type: functional, cell-based, Homo sapiens; settings: Homo sapiens, LAN-6;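 further: growth inhibition of LAN-6 cells, determined with a cell viability assay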
# C2BBe1 = type: functional, cell-based, Homo sapiens; settings: Homo sapiens, C2BBe1;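 further: growth inhibition of C2BBe1 cells, read out through a viability assay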
# TE-9 = type: functional, cell-based, Homo sapiens; settings: Homo sapiens, TE-9;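 further: cell growth inhibition, measured with a cell viability readout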
# J-RT3-T3-5 = type: functional, cell-based; settings: Homo sapiens;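 further: cell viability assay measuring growth inhibition of human J-RT3-T3-5 cells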
# KNS-42 = type: functional, cell-based, Homo sapiens; settings: Homo sapiens, KNS-42;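 further: growth inhibition of KNS-42 cells, read out with a cell viability assay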
# D-502MG = type: functional, cell-based, Homo sapiens; settings: Homo sapiens, D-502MG
# COLO-680N = type: functional, cell-based, Homo sapiens; settings: Homo sapiens, COLO-680N;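 further: cell viability assay used to measure inhibition of COLO-680N cell growth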
# SAOS-2 = type: functional, cell-based, Homo sapiens; settings: Homo sapiens, SAOS-2;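 further: growth inhibition of human Saos-2 cells determined by a cell viability assay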
# 769-P = type: functional, cell-based, Homo sapiens; settings: Homo sapiens, 769-P
# NCI-H2122 = type: functional, cell-based, Homo sapiens; settings: Homo sapiens, NCI-H2122;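 further: growth inhibition of the cells, read out with a cell viability assay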
# CTB-1 = type: functional, cell-based; settings: Homo sapiens
# NCI-H28 = type: functional, cell-based, Homo sapiens; settings: Homo sapiens, NCI-H28;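 further: growth inhibition of human NCI-H28 cells, read out as cell viability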
# GAK = type: functional, cell-based, Homo sapiens; settings: Homo sapiens, GAK;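 further: cell growth inhibition read out by a cell viability assay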
# Calu-6 = type: functional, cell-based, Homo sapiens; settings: Homo sapiens, Calu-6;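 further: growth of human Calu-6 cells, read out by a cell viability assay, IC50 marking inhibition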
# PC-14 = type: functional, cell-based, Homo sapiens; settings: Homo sapiens, PC-14;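 further: cell viability assay measuring inhibition of PC-14 cell growth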
# VM-CUB-1 = type: functional, cell-based; settings: Homo sapiens;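 further: cell viability assay measuring growth inhibition of the human VM-CUB-1 cell line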
# SNU-C2B = type: functional, cell-based, Homo sapiens; settings: Homo sapiens, SNU-C2B;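 further: cell viability readout used to measure compound-driven suppression of SNU-C2B cell proliferation, IC50 marking half-maximal growth inhibition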
# NB13 = type: functional, cell-based, Homo sapiens; settings: Homo sapiens, NB13;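 further: cell viability readout measuring growth inhibition of human NB13 cells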
# HD-MY-Z = type: functional, cell-based, Homo sapiens; settings: Homo sapiens, HD-MY-Z;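 further: growth inhibition of HD-MY-Z cells, read out with a cell viability assay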
# GT3TKB = type: functional, cell-based, Homo sapiens; settings: Homo sapiens, GT3TKB;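 further: growth inhibition of the cell line, read out with a cell viability assay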
# YKG-1 = type: functional, cell-based, Homo sapiens; settings: Homo sapiens, YKG-1;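 further: cell growth inhibition, read out with a viability assay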
# SK-MEL-28 = type: functional, cell-based; settings: Homo sapiens;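 further: growth inhibition of human SK-MEL-28 cells, read out with a cell viability assay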
structure (smiles),measurement,setting,value
Cc1ccc(Nc2nccc(N(C)c3ccc4c(C)n(C)nc4c3)n2)cc1S(N)(=O)=O [PAZOPANIB],IC50,BV-173,> 8000 nM
same,IC50,BB30-HNC,> 8000 nM
same,IC50,RPMI-8866,> 8000 nM
same,IC50,TK-10,> 8000 nM
same,IC50,HT-29,> 8000 nM
same,IC50,SK-PN-DW,> 8000 nM
same,IC50,CP50-MEL-B,> 8000 nM
same,IC50,DJM-1,> 8000 nM
same,IC50,LXF-289 cell line,> 8000 nM
same,IC50,CAL-12T,> 8000 nM
same,IC50,A204,109 nM
same,IC50,LU-99A,> 8000 nM
same,IC50,MHH-ES-1,> 8000 nM
same,IC50,LN-405,> 8000 nM
same,IC50,KYSE-180,> 8000 nM
same,IC50,CGTH-W-1,40 nM
same,IC50,PANC-03-27,> 8000 nM
same,IC50,NCI-H2170,> 8000 nM
same,IC50,COR-L88,> 8000 nM
same,IC50,NCI-H1623,> 8000 nM
same,IC50,HSC-2,> 8000 nM
same,IC50,COLO-792,> 8000 nM
same,IC50,BHT-101,> 8000 nM
same,IC50,LAMA-84,> 8000 nM
same,IC50,SHP77,> 8000 nM
same,IC50,J82,2060 nM
same,IC50,COLO-678,> 8000 nM
same,IC50,BPH-1,> 8000 nM
same,IC50,A-427,1980 nM
same,IC50,LAN-6,> 8000 nM
same,IC50,C2BBe1,> 8000 nM
same,IC50,TE-9,> 8000 nM
same,IC50,J-RT3-T3-5,> 8000 nM
same,IC50,KNS-42,> 8000 nM
same,IC50,D-502MG,7780 nM
same,IC50,COLO-680N,> 8000 nM
same,IC50,SAOS-2,> 8000 nM
same,IC50,769-P,> 8000 nM
same,IC50,NCI-H2122,> 8000 nM
same,IC50,CTB-1,> 8000 nM
same,IC50,NCI-H28,> 8000 nM
same,IC50,Calu-6,> 8000 nM
same,IC50,PC-14,> 8000 nM
same,IC50,VM-CUB-1,> 8000 nM
same,IC50,SNU-C2B,> 8000 nM
same,IC50,NB13,> 8000 nM
same,IC50,HD-MY-Z,> 8000 nM
same,IC50,GT3TKB,> 8000 nM
same,IC50,YKG-1,> 8000 nM
same,IC50,SK-MEL-28,> 8000 nM
CN(c1ncccc1CNc1nc(Nc2ccc3c(c2)CC(=O)N3)ncc1C(F)(F)F)S(C)(=O)=O [PF-00562271],IC50,BV-173,> 2560 nM
same,IC50,BB30-HNC,> 2560 nM
same,IC50,RPMI-8866,> 2560 nM
same,IC50,TK-10,> 2560 nM
same,IC50,HT-29,> 2560 nM
same,IC50,SK-PN-DW,> 2560 nM
same,IC50,CP50-MEL-B,> 2560 nM
same,IC50,DJM-1,> 2560 nM
same,IC50,LXF-289 cell line,> 2560 nM
same,IC50,CAL-12T,> 2560 nM
same,IC50,A204,> 2560 nM
same,IC50,LU-99A,> 2560 nM
same,IC50,MHH-ES-1,1800 nM
same,IC50,LN-405,> 2560 nM
same,IC50,KYSE-180,2290 nM
same,IC50,CGTH-W-1,1620 nM
same,IC50,PANC-03-27,> 2560 nM
same,IC50,NCI-H2170,> 2560 nM
same,IC50,COR-L88,> 2560 nM
same,IC50,NCI-H1623,> 2560 nM
same,IC50,HSC-2,1540 nM
same,IC50,COLO-792,> 2560 nM
same,IC50,BHT-101,> 2560 nM
same,IC50,LAMA-84,> 2560 nM
same,IC50,SHP77,> 2560 nM
same,IC50,J82,> 2560 nM
same,IC50,COLO-678,> 2560 nM
same,IC50,BPH-1,1290 nM
same,IC50,A-427,> 2560 nM
same,IC50,LAN-6,> 2560 nM
same,IC50,C2BBe1,> 2560 nM
same,IC50,TE-9,> 2560 nM
same,IC50,J-RT3-T3-5,> 2560 nM
same,IC50,KNS-42,> 2560 nM
same,IC50,D-502MG,> 2560 nM
same,IC50,COLO-680N,> 2560 nM
same,IC50,SAOS-2,> 2560 nM
same,IC50,769-P,> 2560 nM
same,IC50,NCI-H2122,> 2560 nM
same,IC50,CTB-1,> 2560 nM
same,IC50,NCI-H28,> 2560 nM
same,IC50,GAK,> 2560 nM
same,IC50,Calu-6,> 2560 nM
same,IC50,PC-14,> 2560 nM
same,IC50,VM-CUB-1,> 2560 nM
same,IC50,SNU-C2B,> 2560 nM
same,IC50,NB13,> 2560 nM
same,IC50,HD-MY-Z,> 2560 nM
same,IC50,GT3TKB,> 2560 nM
same,IC50,YKG-1,> 2560 nM
same,IC50,SK-MEL-28,> 2560 nM
